In patent publication US7341836B2, “Modified cyclic nucleotide gated ion channels” (The Regents of the University of Colorado, priority 2001, dated 2008):
“Also recorded” adds a separate entry of the source.

Columns and labels:
[1] = tested on: PDE IV; conditions: cited from earlier work
[2] = tested on: PDE I; conditions: cited from earlier work
[3] = tested on: PDE III; conditions: cited from earlier work
[4] = tested on: PDE activity in GH4C1 cells; experiment: Effect of PDE inhibitors, forskolin and VIP on cAMP levels (Ca2+ influx through CNG channels); type: cell-based, rat; conditions: for d(ΔF/F0)/dt: basal cAMP, inhibitor concentration (μM)
Protocol: To further test the utility of this approach, PDE activity in excitable GH4C1 pituitary cells was examined. In all of the experiments shown (See, FIGS. 13-14, and Table 2), 1 μM nimodipine was added at time zero to block Ca^2+ influx though voltage-gated Ca^2+ channels (triggered by membrane depolarization due to Ca^2+ and Na^+ influx through CNG channels). […] FIGS. 13 and 14 each depict experiments done on a single batch of cells. As before, similar results were obtained on three other batches. In the experiments that produced the data shown in Table 2, cAMP concentrations were monitored using Ca^2+ influx through C460W/E583M channels. […] Either 100 μM IBMX or vehicle (-IBMX; control) were added at time zero. Then, 50 μM forskolin were added at 180 seconds d(ΔF/F0)/dt, which is proportional to the Ca^2+ influx rate, was estimated as described in the Examples. Data are provided as mean±standard error. IBMX or vehicle was added at 60 seconds (first arrow in FIG. 13). Either 10 μM forskolin or 100 nM VIP were added at 240 seconds (second arrow in FIG. 13). In the absence of IBMX, large forskolin or VIP-induced increases in Ca^2+ influx were observed. […] This level of basal AC activity was quite different from that observed in HEK-293 cells (See, FIGS. 9 and 10). 1 μM nimodipine was added at time 0 to block endogenous voltage-gated Ca^2+ channels.
To identify the PDE family or families that regulate the local cAMP concentration in GH4C1 cells, cAMP accumulation was monitored in the presence and absence of PDE inhibitors (See, Table 2). Again, the high cAMP affinity C460W/E583M channels were used. PDE inhibitors were added at 60 s. Although the addition of IBMX alone triggered Ca^2+ influx, 10 μM forskolin were added at 240 s as a positive control for CNG channel activity. […] This PDE is likely to have a low Km for cAMP because it is capable of regulating cAMP at concentrations too low for the WT or Δ61-90/C460W/E583M channels to detect. Thus, it is contemplated that a Ca^2+-CaM stimulated PDE (type I) is primarily responsible for controlling basal cAMP signals in GH4C1 cells.
In addition, PDE activity was monitored using Δ61-90/C460W/E583M channels to detect changes in cAMP concentration (See, FIG. 14). PDE inhibitors and forskolin were added as described above. With this construct, it was not possible to observe changes in cAMP concentration due to inhibition of PDE activity alone. […] Inhibitors specific to other PDE types had no effect on the forskolin-induced Ca^2+ influx (data not shown). […] It is contemplated that Ca^2+ influx through the C460W/E583M channels was saturated at cAMP concentrations below the Km for this PDE. Thus, it is contemplated that there are two different PDE types that regulate local cAMP signals in GH4C1 cells: a low Km, 8-methoxymethyl-IBMX sensitive PDE (type I); and a high Km, RO-20-1724-, rolipram-sensitive PDE (type IV).
GH4C1 rat pituitary cells (ATCC) were maintained in 13 mL Ham's F-10 medium (Life Technologies) supplemented with 14.3 mM NaHCO3, 15% donor horse serum (Gemini), and 2.5% fetal bovine serum, pH 6.8, in 75 cm^2 flasks at 37° C. in a humidified atmosphere of 95% air and 5% CO2. Cells were split weekly (1:4) and washed with fresh medium twice weekly. Cells were plated at ˜60% confluence in 100 mm culture dishes twenty-four hours prior to infection with the CNG-channel-encoding adenovirus constructs (multiplicity of infection=50 plaque forming units per cell). Forty-eight hours post-infection cells were detached, resuspended in serum-containing medium, and assayed within 12 hours.
In this Example, experiments conducted to examine the response of excitable GH4C1 pituitary cells to stimulation by either forskolin or the hormone vasoactive intestinal peptide (VIP), in the presence of absence of PDE inhibitors are described. […]

[5] = target: T1, PDE VIII (Mus musculus, UniProt O88502); conditions: cited from earlier work
T1 construct: host or cells: heterologously expressed
T1 sequence (O88502 1-823): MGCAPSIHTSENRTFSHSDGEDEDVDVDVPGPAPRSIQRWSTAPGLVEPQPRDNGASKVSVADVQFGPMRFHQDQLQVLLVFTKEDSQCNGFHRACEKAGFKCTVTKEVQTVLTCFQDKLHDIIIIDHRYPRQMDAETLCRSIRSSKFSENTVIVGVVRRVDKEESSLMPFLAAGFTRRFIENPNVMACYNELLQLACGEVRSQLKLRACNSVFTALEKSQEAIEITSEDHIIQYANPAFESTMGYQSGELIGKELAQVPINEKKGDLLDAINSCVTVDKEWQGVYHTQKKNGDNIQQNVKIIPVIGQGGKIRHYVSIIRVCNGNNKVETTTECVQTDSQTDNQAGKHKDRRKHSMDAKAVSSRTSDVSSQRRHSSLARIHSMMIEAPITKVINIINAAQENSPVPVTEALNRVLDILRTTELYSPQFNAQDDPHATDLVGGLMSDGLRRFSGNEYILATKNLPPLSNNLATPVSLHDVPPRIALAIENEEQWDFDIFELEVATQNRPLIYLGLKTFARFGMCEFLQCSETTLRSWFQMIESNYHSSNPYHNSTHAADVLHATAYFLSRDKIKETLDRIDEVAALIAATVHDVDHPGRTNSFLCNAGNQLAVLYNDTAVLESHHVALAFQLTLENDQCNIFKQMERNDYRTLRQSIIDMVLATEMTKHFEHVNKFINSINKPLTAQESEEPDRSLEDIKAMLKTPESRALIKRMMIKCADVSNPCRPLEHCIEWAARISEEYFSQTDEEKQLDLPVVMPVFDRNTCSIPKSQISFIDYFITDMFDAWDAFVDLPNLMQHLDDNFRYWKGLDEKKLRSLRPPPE

[6] = tested on: PDE VI; conditions: cited from earlier work
[7] = target: T2, PDE VII (UniProt Q9QXQ1); conditions: cited from earlier work
T2 sequence (Q9QXQ1 1-446): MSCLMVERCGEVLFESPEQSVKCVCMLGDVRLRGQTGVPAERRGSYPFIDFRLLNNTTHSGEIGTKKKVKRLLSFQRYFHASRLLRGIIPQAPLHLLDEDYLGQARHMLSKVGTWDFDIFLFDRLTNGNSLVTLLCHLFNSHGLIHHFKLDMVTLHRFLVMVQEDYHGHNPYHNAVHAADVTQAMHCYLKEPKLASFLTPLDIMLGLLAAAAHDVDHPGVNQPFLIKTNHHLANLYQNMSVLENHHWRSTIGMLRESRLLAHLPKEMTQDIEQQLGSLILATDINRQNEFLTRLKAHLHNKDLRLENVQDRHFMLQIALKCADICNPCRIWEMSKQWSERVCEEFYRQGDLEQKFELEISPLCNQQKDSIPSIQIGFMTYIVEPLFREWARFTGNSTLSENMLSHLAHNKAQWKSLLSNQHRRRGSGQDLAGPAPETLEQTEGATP

[8] = target: T3, PDE IX (UniProt O70628); conditions: read-out: IC50, PDE IX; cited from earlier work
T3 sequence (O70628 1-534): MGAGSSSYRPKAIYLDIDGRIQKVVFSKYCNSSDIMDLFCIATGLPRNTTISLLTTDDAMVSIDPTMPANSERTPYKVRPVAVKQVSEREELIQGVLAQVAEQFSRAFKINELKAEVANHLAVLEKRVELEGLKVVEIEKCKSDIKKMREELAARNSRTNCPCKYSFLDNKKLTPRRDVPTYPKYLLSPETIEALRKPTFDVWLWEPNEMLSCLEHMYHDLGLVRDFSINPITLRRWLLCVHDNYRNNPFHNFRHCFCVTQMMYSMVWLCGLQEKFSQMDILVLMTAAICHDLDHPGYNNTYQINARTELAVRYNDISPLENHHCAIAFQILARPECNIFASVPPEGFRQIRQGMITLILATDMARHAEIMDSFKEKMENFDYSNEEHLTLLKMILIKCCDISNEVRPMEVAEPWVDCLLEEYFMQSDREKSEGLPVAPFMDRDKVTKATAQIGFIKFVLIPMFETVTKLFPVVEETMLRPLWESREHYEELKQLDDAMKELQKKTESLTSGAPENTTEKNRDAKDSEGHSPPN

| Compound | IC50 [1] [µM] | IC50 [2] [µM] | IC50 [3] [µM] | Ca2+ influx induced by the PDE inhibitor alone (basal cAMP) ([4]; C460W/E583M channels, no AC stimulation) | d(ΔF/F0)/dt ([4]; C460W/E583M channels) [s⁻¹] | effect on forskolin-induced Ca2+ influx / PDE activity ([4]; Δ61-90/C460W/E583M channels, 10 μM forskolin) | IC50 [5] [µM] | IC50 [6] [nM] | IC50 [7] [µM] | IC50 [8] [µM] |
| --- | --- | --- | --- | --- | --- | --- | --- | --- | --- | --- |
| COCc1nc2c([nH]1)c(=O)n(C)c(=O)n2CC(C)C [8-methoxymethyl-IBMX] | > 100 | 2 to 8 | 69 | induced Ca^2+ influx through CNG channels | 0.0025 ± 0.0009 | significantly inhibited PDE activity; also recorded: increase forskolin-induced Ca^2+ influx through CNG channels | – | – | – | – |
| CCCOc1ccccc1-c1nc2nn[nH]c2c(=O)[nH]1 [Zaprinast] | – | 3 to 10 | 10 | – | 0 | – | > 100 | 150 | > 50 | 29 to 35 |
